Results as given in the NIST ThermoML archive (doi:10.1021/acs.jced.8b00610).
Where “and” joins values, the source holds several entries; their conditions need not be identical. Equal entries are not always repeated. ± gives the expanded uncertainty stated by the source.

Settings: Liquid, Ebulliometric method (Recirculating still)

SMILES	vapor or sublimation pressure (355.7 K)	vapor or sublimation pressure (373.1 K)
CC(C)O [propan-2-ol]	101.3 ± 1.4 kPa and 101.32 ± 10 kPa	–
O [water]	–	101.3 ± 1.4 kPa
